# Laboratory results taken from patent US20250100963A1, “SULFONATED AND PHOSPHORYLATED AROMATIC MOLECULES” (Xavier University of Louisiana, priority 2023, published 2025).
# Where two headings read alike, the source gives them in different places.
# Assays:
# CatG [1] = biological target: T1, CatG (Homo sapiens, UniProt P08311); test: Salt-dependent direct inhibition of human CatG; assay type: biochemical; conditions: for HS (Hill slope) / IC50 / ΔY (efficacy): pH 7.4, 37° C.; for Ki: estimated by IC50 to Ki conversion, noncompetitive model, read-out: Calculated Ki
# T1 sequence (P08311 21-244): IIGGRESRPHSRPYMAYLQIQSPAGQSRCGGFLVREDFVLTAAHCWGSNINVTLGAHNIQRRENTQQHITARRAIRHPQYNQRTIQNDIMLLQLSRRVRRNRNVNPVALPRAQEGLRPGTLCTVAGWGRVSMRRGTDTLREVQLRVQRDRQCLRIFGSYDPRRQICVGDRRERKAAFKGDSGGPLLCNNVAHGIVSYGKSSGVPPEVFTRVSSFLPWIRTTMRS
# Excerpt: The Ki (μM) values were estimated using an IC50 to Ki conversion equation [19].
# Although the sulfonated and/or phosphorylated compounds-CatG interaction is likely to be electrostatically driven, non-ionic forces may contribute to a significant extent. A significant non-ionic binding energy component increases the interaction specificity because the majority of non-ionic forces, for example, cation—π interactions, H-bonding and others depend strongly on the orientation and the distance of interacting pair of molecules. In contrast, ionic bonds are non-directional and less dependent on distance, which may increase initial interaction but offer less selectivity of recognition. […] The IC50 values were measured spectrophotometrically under various salt concentrations (100 and 200 mM), as described above. […] Subsequently, the corresponding Ki (nM) values were estimated using a formula previously reported following a classical model of noncompetitive enzyme inhibition and the results are reported below. […] Table 4 and FIG. 4.
# CatG [2] = biological target: T1, CatG; test: Michaelis-Menten kinetics of chromogenic substrate (S-7388) hydrolysis by CatG; assay type: biochemical
# Description: The initial rate of the hydrolysis of the chromogenic substrate by CatG was monitored from the linear increase in absorbance corresponding to less than 10% consumption of substrate at 37° C. in pH 7.4 20 mM Tris buffer containing 100 mM NaCl, 2.5 mM CaCl2, 0.1% PEG 8000 and 0.05% tween 80. The initial rate was measured at various substrate concentrations ([…]) at fixed enzyme concentration (30 nM), and fixed sulfonated compounds concentrations (0, 25, 50, 100, 200, 400, and 800 nM). The data were fitted by the Michaelis-Menten Equation (3) to determine the KM (substrate affinity) and VMAX (maximum reaction velocity).
# To understand the mechanistic basis of inhibition, Michaelis-Menten kinetics of S-7388 hydrolysis by CatG was performed in the presence of inhibitor 2 at pH 7.4 and 37° C. […] Table 5 and FIG. 5.
smiles,measurement,setting,value
"O=C(Nc1cc(C(=O)Nc2ccc(S(=O)(=O)O)cc2S(=O)(=O)O)cc(C(=O)Nc2ccc(S(=O)(=O)O)cc2S(=O)(=O)O)c1)Nc1cc(C(=O)Nc2ccc(S(=O)(=O)O)cc2S(=O)(=O)O)cc(C(=O)Nc2ccc(S(=O)(=O)O)cc2S(=O)(=O)O)c1 [Formula II, 4,4′,4″,4′-((5,5′-(carbonylbis(azanediyl))bis(isophthaloyl))tetrakis(azanediyl))tetrakis(benzene-1,3-disulfonic acid)]",Decrease in potency on 2-fold increase in salt concentration,CatG [1]; 100 vs 200 mM salt,~10 fold
same,HS (Hill slope),CatG [1]; [NaCl] 100 mM,1.5 ± 0.3
same,IC50,CatG [1]; [NaCl] 100 mM,90 ± 10 nM
same,ΔY (efficacy),CatG [1]; [NaCl] 100 mM,82.5 ± 7.4%
same,Ki,CatG [1]; [NaCl] 100 mM,~75 nM
same,HS (Hill slope),CatG [1]; [NaCl] 200 mM,1.5 ± 0.3
same,IC50,CatG [1]; [NaCl] 200 mM,920 ± 150 nM
same,ΔY (efficacy),CatG [1]; [NaCl] 200 mM,75.2 ± 3.4%
same,Ki,CatG [1]; [NaCl] 200 mM,~910 nM
same,"Decrease of VMAX, absence of inhibitor vs 800 nM",CatG [2]; 0 vs 800 nM inhibitor,~3 fold
same,Km,CatG [2]; Formula II 40 nM,1200 ± 300 µM
same,Vmax,CatG [2]; Formula II 40 nM,26.1 ± 2.5 mAU/min
same,Km,CatG [2]; Formula II 100 nM,1290 ± 190 µM
same,Vmax,CatG [2]; Formula II 100 nM,17.6 ± 1.1 mAU/min
same,Km,CatG [2]; Formula II 400 nM,1400 ± 220 µM
same,Vmax,CatG [2]; Formula II 400 nM,11.4 ± 0.8 mAU/min
same,Km,CatG [2]; Formula II 800 nM,1320 ± 207 µM
same,Vmax,CatG [2]; Formula II 800 nM,10.6 ± 0.95 mAU/min
same,Vmax,"CatG [2]; Formula II 800 nM, listed as inhibitor 2",10.6±0.95 mAU/min
same,KM for S-7388 in the presence or absence of inhibitor,"CatG [2]; inhibitor 0-800 nM, pH 7.4, 37° C.",essentially unchanged
